In article PMC12321279, “Novel 4,5‐Dihydrothiazole‐Phenylpiperazine Derivatives: Synthesis, Docking Studies and Pharmacological Evaluation as Serotonergic Agents” (Chemmedchem, 2025):
Read-outs that look alike come from different tables or passages of the source.

What was measured:
5‐HT1A receptor = target: T1, 5‐HT1A receptor (Rattus norvegicus, UniProt P19327); assay: 5‐HT1A receptor activation in the [35S]GTP‐γ‐S assay (hippocampal membranes); assay type: biochemical; details: [35S]GTPγS; for Emax: read-out: Emax (%) ± SEM, 5‐HT1A receptor G‐protein stimulation; for agonist activity for the 5‐HT1A receptor (classification in words): efficacy compared with 8‐OH‐DPAT
T1 construct: 80 μg of hippocampal membrane suspension (the 5‐HT1A assay); from tissue; host or cells: rat (Sprague-Dawley) hippocampus membranes
T1 sequence (P19327 1-422): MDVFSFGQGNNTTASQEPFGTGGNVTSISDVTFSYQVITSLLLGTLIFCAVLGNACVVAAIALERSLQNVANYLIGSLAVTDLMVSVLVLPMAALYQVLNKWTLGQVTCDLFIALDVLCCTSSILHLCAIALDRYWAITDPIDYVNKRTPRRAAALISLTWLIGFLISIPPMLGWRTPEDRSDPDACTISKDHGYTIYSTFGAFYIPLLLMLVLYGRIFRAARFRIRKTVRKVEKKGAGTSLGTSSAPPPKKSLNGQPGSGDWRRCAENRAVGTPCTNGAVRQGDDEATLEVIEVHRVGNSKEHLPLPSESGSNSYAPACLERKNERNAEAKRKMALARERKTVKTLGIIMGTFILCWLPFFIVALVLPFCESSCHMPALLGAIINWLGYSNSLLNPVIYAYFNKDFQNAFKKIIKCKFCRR
Description: Seven compound concentrations equally spaced on a log scale (10–4 M to 10–10 M) were incubated in duplicate with hippocampal membrane preparations (5μg per well) in assay buffer (50 mM Tris‐HCl, pH = 7.4, 1 mM EGTA, 3 mM MgCl2, 100 mM NaCl, and 30 μM GDP) and 0.08 nM [^35S]GTP‐γ‐S (specific activity: 1250 Ci mmole^−1, Revvity). Nonspecific binding was determined with 10μM of unlabeled GTP‐γ‐S. The final DMSO concentration in the assay was 5%. The reaction mixture was incubated for 90 min. at 30 °C on an orbital shaker set at 250 rpm. Next, the reaction mixture was deposited under vacuum with the FilterMate Harvester (Revvity, USA) onto Unifilter GF/C Plates (Revvity, MA, USA) presoaked with wash buffer (50 mM Tris‐HCl, pH = 7.4). The wells were then rapidly washed with 2 mL of wash buffer. Filter plates were dried overnight at room temperature. Once completely dry, 35 μl of MicroScint PS (Revvity, MA, USA) scintillation fluid was added to each well. Radioactivity was counted in a MicroBeta2 LumiJet scintillation counter (Revvity, MA, USA). Data were analyzed with GraphPad Prism 5.0 software (GraphPad Software, San Diego California USA, www.graphpad.com). The curves were fitted with three‐parameter non‐linear regression model.

larval zebrafish = assay: Basic locomotor activity of larval zebrafish; assay type: in vivo, zebrafish (Danio rerio); details: 5 dpf larvae, 20 h incubation at maximum‐tolerated concentration (Figure 12), 30 min tracking
Description: All experiments were conducted on zebrafish (Danio rerio) larvae up to 5 days post fertilization (dpf), therefore, in accordance with current European legislation, ethical permission to conduct assays was not required. However, housing and experimental procedures were performed in compliance with the National Institute of Health Guidelines for the Care and Use of Laboratory Animals and the European Union Directive of 22 September 2010 (2010/63/EU) on protecting animals used for scientific purposes. All efforts were taken to minimize larvae stress and suffering. Larvae were euthanized with an overdose of tricaine ([…]). The zebrafish facility of Experimental Medicine Centre (Medical University of Lublin, Poland) provided wild‐type zebrafish embryos of the AB strain. Embryos as well as larvae were maintained in Petri dishes filled with E3 embryo medium, i.e., fish water (1.5 mM HEPES, pH 7.6; 17.4 mM NaCl; 0.21 mM KCl; 0.12 mM MgSO4; and 0.18 mM Ca (NO3)2). These were maintained under standard, generally accepted housing conditions (temperature 28.5 ± 1 °C, light to dark cycle 14 h to 10 h). Plastic transfer Pasteur pipettes were used to replace medium each day. Before the respective behavioral tests were conducted, larvae at 4 dpf were incubated for 20 h in different arylpiperazine derivatives solutions of maximum‐tolerated concentrations (MCTs), determined during toxicological screening.^[ [30], [32] ^] The control group was exposed to equivalent concentration of DMSO solvent. All locomotor tracking tests were performed at the same period of the day. Basic locomotor activity was measured using an automated tracking device, Daniovision by Noldus, and the total distance traveled was quantified using EthoVision XT software of the same company (Wageningen, the Netherlands) over a 30 min long observation period. Larvae were placed in 48‐well plates, individually (single larva per well), using a plastic transfer pipette. The PTZ‐induced hyperlocomotion (acute seizure assay) was assessed in 5 dpf larval zebrafish (after 20 h incubation with tested derivatives at MCTs). After the incubation, larvae were exposed to an acute dose of PTZ (20 mM). Larval locomotor activity after exposure to PTZ was tracked (Daniovision by Noldus) over 30 mins, after 5‐mins of habituation. Additionally, larval locomotor activity was assessed in response to alternate lighting conditions (lights ON vs. lights OFF). Light intensity under illumination was 100%. Challenge to light/dark conditions lasted 10 min each, twice repeated.^[ [52] ^] Similarly, the data were recorded as the distance traveled (mm) by larvae when exposed to alternating lightning. All experiments were repeated three times, and data pooled. For statistical analysis and figure generation, GraphPad Prism 9.3.1 version (San Diego, CA, USA) was employed, and Grubbs test was applied to identify outliers. Shapiro‐Wilk test was then employed to assess whether data are normally distributed. Moreover, nonparametric ANOVA, Kruskal–Wallis, or Friedman (for repeated measures) test was used to analyze data, with statistical significance level set at p < 0.05. Data are presented as median or median + individual values.

[1] = rat hippocampal membranes, 95% CI in brackets, read-out: EC50 (95% CI, μM), 5‐HT1A receptor G‐protein stimulation
[2] = rat hippocampal membranes, read-out: pEC50, 5‐HT1A receptor G‐protein stimulation (converted)

Structure (SMILES) | EC50 (5‐HT1A receptor; [1]) | Emax (5‐HT1A receptor; rat hippocampal membranes) | EC50 (5‐HT1A receptor; [2]) | basic locomotor activity (total distance traveled) (larval zebrafish) | agonist activity for the 5‐HT1A receptor (classification in words) (5‐HT1A receptor) | Emax (%) ± SEM, 5‐HT1A receptor G‐protein stimulation (5‐HT1A receptor; rat hippocampal membranes)
O=C(NCCCN1CCN(c2ccccc2C2=NCCS2)CC1)c1ccccn1 [FG‐1, N‐(3‐(4‐(2‐(4,5‐dihydrothiazol‐2‐yl) phenyl) piperazin‐1‐yl) propyl) picolinamide] | 16.5 µM | 138 ± 11.5% | 20 µM | decreased | – | –
O=C(NCCCN1CCN(c2cccc(C3=NCCS3)c2)CC1)c1ccccn1 [FG‐2, N‐(3‐(4‐(3‐(4,5‐dihydrothiazol‐2‐yl) phenyl) piperazin‐1‐yl) propyl) picolinamide] | 125 µM | 136 ± 10.2% | – | – | – | –
O=C(NCCCN1CCN(c2ccccc2C2=NCCS2)CC1)c1ccncc1 [FG‐4, N‐(3‐(4‐(2‐(4,5‐dihydrothiazol‐2‐yl) phenyl) piperazin‐1‐yl) propyl) isonicotinamide] | – | 132 ± 14.9% | 50.1 µM | slightly decreased larval activity | – | –
O=C(NCCCN1CCN(c2cccc(C3=NCCS3)c2)CC1)c1ccncc1 [FG‐5, N‐(3‐(4‐(3‐(4,5‐dihydrothiazol‐2‐yl) phenyl) piperazin‐1‐yl) propyl) isonicotinamide] | 18.2 µM | 185 ± 17.6% | – | – | – | –
O=C(NCCCN1CCN(c2ccc(C3=NCCS3)cc2)CC1)c1ccncc1 [FG‐6, N‐(3‐(4‐(4‐(4,5‐dihydrothiazol‐2‐yl) phenyl) piperazin‐1‐yl) propyl) isonicotinamide] | 9.4 µM | 184 ± 11% | – | slightly decreased larval activity | full agonists | –
O=C1C2C3C=CC(C3)C2C(=O)N1OCCCN1CCN(c2ccccc2C2=NCCS2)CC1 (stereo not drawn) [FG‐7, 2‐(3‐(4‐(2‐(4,5‐dihydrothiazol‐2‐yl) phenyl) piperazin‐1‐yl) propoxy)‐3a,4,7,7a‐tetrahydro‐1 H‐4,7‐methanoisoindole‐1,3(2 H)‐dione] | 3.01 µM | 177 ± 3.3% | – | slightly decreased larval activity | full agonists | –
O=C1C2C3C=CC(C3)C2C(=O)N1OCCCN1CCN(c2cccc(C3=NCCS3)c2)CC1 (stereo not drawn) [FG‐8, 2‐(3‐(4‐(3‐(4,5‐dihydrothiazol‐2‐yl) phenyl) piperazin‐1‐yl) propoxy)‐3a,4,7,7a‐tetrahydro‐1H‐4,7‐methanoisoindole‐1,3(2H)‐dione] | 7.9 µM | 184 ± 6.6% | – | slightly decreased larval activity | full agonists | –
O=C(NCCCN1CCN(c2ccc(C3=NCCS3)cc2)CC1)C1CC2C=CC1C2 (stereo not drawn) [FG‐18, Endo‐ N‐(3‐(4‐(4‐(4,5‐dihydrothiazol‐2‐yl)phenyl)piperazin‐1‐yl)propyl) bicyclo[2.2.1]hept‐5‐ene‐2‐carboxamide] | 8.8 µM | – | 8.91 µM | decreased | – | 144 ± 8.2%
